Assay results reported in patent US20230109833A1, “METABOLICALLY STABLE N-ACYLAMINOOXADIAZOLES USEFUL AS ANTIBACTERIAL AGENTS” (MICROBIOTIX, INC., priority 2017, published 2023).
In brackets after ≈: the same amount, converted by molar mass. Entries after “also recorded” stand apart in the source; their conditions may differ. Like-named read-outs stand apart in the source and are kept apart here.

What was measured:
N. gonorrhoeae = test: MIC (Table 2B); assay type: cell-based; details: Neisseria gonorrhoeae, read-out: N. gonorrhoeae MIC
S. aureus = test: MIC (Table 2B); assay type: cell-based; details: Staphylococcus aureus, strain not given
[1] = Single dose PK (IV and PO); assay type: in vivo; details: mice, 10 mg/kg IV or IP, within 6 h, serum; 10 mg/kg
36 mammalian receptors = assay type: binding; details: 10 μM; every receptor of the panel

| Structure (SMILES) | MIC (N. gonorrhoeae; Table 2B, strain not given) [µg/mL] | MIC (S. aureus) [µg/mL] | also measured |
| --- | --- | --- | --- |
| Cc1ccc(C(=O)Nc2nnc(-c3ccc(N4CCC4)cc3)o2)cc1C [3999A] | 0.087 (≈ 0.25 µM) | 0.68 (≈ 1.95 µM) |  |
| O=C(Nc1nnc(-c2ccccc2O)o1)c1ccc(Oc2ccccc2)nc1 [5939A] | 0.82 (≈ 2.19 µM) | 1.4 (≈ 3.74 µM) |  |
| O=C(Nc1nnc(-c2ccc(F)cc2)o1)c1ccc(Cl)cc1 [KKL-35] |  |  | detectable material after dosing (preliminary PK) [1]: no detectable material; also recorded: undetectable |
| O=C(Nc1nnc(-c2ccc(F)cc2)o1)c1ccc(Cl)s1 [compound 3653] | 0.32 (≈ 0.988 µM) |  |  |
| CN(C(=O)c1ccc(Cl)cc1)c1nnc(-c2ccc(F)cc2)o1 [compound 4076] | 2.07 (≈ 6.24 µM) | 8.27 (≈ 24.9 µM) |  |
| O=C(Nc1nnc(-c2ccc(F)cc2)o1)c1ccc(Oc2ccccc2)nc1 [compound 4237, 2-(6-phenoxynicotinamido)-5-(4-fluorophenyl)-1,3,4-oxadiazole] |  |  | inhibition of the 36 mammalian receptors (36 mammalian receptors): < 50% |
| O=C(Nc1nnc(-c2ccc(F)cc2)o1)c1ccc(S(=O)(=O)c2ccccc2)cc1 [compound 4257] |  | 2.64 (≈ 6.23 µM) |  |
| O=C(Nc1nnc(-c2ccc(F)cc2)o1)c1ccc(OC2CCCC2)cc1 [compound 4293] |  | 0.28 (≈ 0.762 µM) |  |
| O=C(Nc1nnc(-c2ccc(F)cc2)o1)c1ccc(Oc2cccc(O)c2)cc1 [compound 4304] | 0.39 (≈ 0.997 µM) | 3.07 (≈ 7.84 µM) |  |
| Cc1ccc(Oc2ccc(C(=O)Nc3nnc(-c4ccc(F)cc4)o3)cc2)cc1 [compound 4305] | 0.048 (≈ 0.123 µM) | 0.03 (≈ 0.077 µM) |  |
| Cc1cccc(Oc2ccc(C(=O)Nc3nnc(-c4ccc(F)cc4)o3)cc2)c1 [compound 4306] | 0.048 (≈ 0.123 µM) | 0.03 (≈ 0.077 µM) |  |
| Cc1ccccc1Oc1ccc(C(=O)Nc2nnc(-c3ccc(F)cc3)o2)cc1 [compound 4307] | 0.09 (≈ 0.231 µM) | 0.61 (≈ 1.57 µM) |  |
| Cc1cc(C)cc(Oc2ccc(C(=O)Nc3nnc(-c4ccc(F)cc4)o3)cc2)c1 [compound 4308] | 0.079 (≈ 0.196 µM) | 0.314 (≈ 0.778 µM) |  |
| COc1cccc(Oc2ccc(C(=O)Nc3nnc(-c4ccc(F)cc4)o3)cc2)c1 [compound 4309] | 0.1 (≈ 0.247 µM) | 0.63 (≈ 1.55 µM) |  |
| COc1ccc(Oc2ccc(C(=O)Nc3nnc(-c4ccc(F)cc4)o3)cc2)cc1 [compound 4310] | 0.05 (≈ 0.123 µM) | 0.631 (≈ 1.56 µM) |  |
| O=C(Nc1nnc(-c2ccc(F)cc2)o1)c1ccc2c(c1)ncn2-c1ccccc1 [compound 4311] | 2.49 (≈ 6.23 µM) |  |  |
| CC(Oc1ccc(C(=O)Nc2nnc(-c3ccc(F)cc3)o2)cc1)c1ccccc1 (stereo not shown) [compound 4357] | 0.2 (≈ 0.496 µM) |  |  |
| O=C(Nc1nnc(C2CCCC2)o1)c1ccc(Oc2ccccc2)nc1 [compound 4470] | 0.35 (≈ 0.999 µM) | 4.37 (≈ 12.5 µM) |  |
| Cc1cccc(-c2nnc(NC(=O)c3ccc(Oc4ccccc4)nc3)o2)c1 [compound 4499] | 0.18 (≈ 0.483 µM) | 0.92 (≈ 2.47 µM) |  |

| Structure (SMILES) | MIC (N. gonorrhoeae; Table 2B, strain not given) [µg/mL] | MIC (S. aureus) [µg/mL] | also measured |
| --- | --- | --- | --- |
| O=C(Nc1nnc(C2COc3ccccc3O2)o1)c1ccc(Oc2ccccc2)nc1 (stereo not shown) [compound 4770] | 3.33 (≈ 8 µM) | 7.36 (≈ 17.7 µM) |  |
| O=C(Nc1nnc(C2CCCCC2)o1)c1ccc(Oc2ccccc2)nc1 [compound 4780] | 0.36 (≈ 0.988 µM) | 3.61 (≈ 9.91 µM) |  |
| O=C(Nc1nnc(C2CCCCC2)o1)c1ccc(Oc2cccc(O)c2)cc1 [compound 4801] | 0.19 (≈ 0.501 µM) | 2.98 (≈ 7.85 µM) |  |
| O=C(Nc1nnc(Cc2ccc(F)cc2)o1)c1ccc(Oc2ccccc2)nc1 [compound 4802] | 1.56 (≈ 4 µM) |  |  |
| CCC(c1ccccc1)c1nnc(NC(=O)c2ccc(Oc3ccccc3)nc2)o1 (stereo not shown) [compound 4804] | 0.63 (≈ 1.57 µM) |  |  |
| O=C(Nc1nnc(C2CCCCC2)o1)c1ccc(OC2CCCCC2)nc1 [compound 4925] | 0.14 (≈ 0.378 µM) |  |  |
| O=C(Nc1nnc(C2CC3CCC2C3)o1)c1ccc(Oc2ccccc2)nc1 (stereo not shown) [compound 5246] | 0.16 (≈ 0.425 µM) | 4.71 (≈ 12.5 µM) |  |
| O=C(Nc1nnc(C2(O)CCCCC2)o1)c1ccc(Oc2ccccc2)nc1 [compound 5793] | 38 (≈ 99.9 µM) |  |  |
| Nc1ccc(C(=O)Nc2nnc(-c3ccc(F)cc3)o2)cc1 [compound 5804] |  |  | MIC (N. gonorrhoeae): 18.8 µg/mL (≈ 63 µM) |
| N#Cc1nnc(NC(=O)c2ccc(Oc3ccccc3)nc2)o1 [compound 5834] | 20.3 (≈ 66.1 µM) |  |  |
| O=C(Nc1nnc(-c2ccc(F)cc2)o1)c1ccc(N2CCC2)cc1 [compound 5910] | 4.23 (≈ 12.5 µM) | 18.9 (≈ 55.9 µM) |  |
| O=C(Nc1nnc(-c2ccccc2O)o1)c1ccc(Oc2cccc(O)c2)cc1 [compound 6205] | 0.3 (≈ 0.77 µM) | 1.71 (≈ 4.39 µM) |  |
| O=C(Nc1nnc(C2CC3CCC2C3)o1)c1ccc(OC2CCN(CC(F)(F)F)CC2)cc1 (stereo not shown) [compound 6211] | 1.29 (≈ 2.78 µM) | 5.8 (≈ 12.5 µM) |  |
| O=C(Nc1nnc(-c2cccc(O)c2)o1)c1ccc(Oc2cccc(O)c2)cc1 [compound 6236] | 4.86 (≈ 12.5 µM) | 19.4 (≈ 49.8 µM) |  |
| Cc1cncc(Oc2ccc(C(=O)Nc3nnc(C4CC5CCC4C5)o3)cc2)n1 (stereo not shown) [compound 6282] | 1.37 (≈ 3.5 µM) | 6.9 (≈ 17.6 µM) |  |
| O=C(Nc1nnc(-c2cccc(F)c2O)o1)c1ccc(Oc2cccc(O)c2)cc1 [compound 6976] | 1.91 (≈ 4.69 µM) | 2.5 (≈ 6.14 µM) |  |
| O=C(Nc1nnc(-c2cc(F)ccc2O)o1)c1ccc(Oc2cccc(O)c2)cc1 [compound 6977] | 0.21 (≈ 0.516 µM) | 0.6 (≈ 1.47 µM) |  |
| COc1c(F)cccc1-c1nnc(NC(=O)c2ccc(Oc3cncc(C)n3)cc2)o1 [compound 6983] | 9.7 (≈ 23 µM) | 21.1 (≈ 50.1 µM) |  |
